Measurements as given in ChEMBL document CHEMBL1159243, “Chemical and biological investigation of the polar constituents of the starfish Luidia clathrata, collected in the Gulf of Mexico” (1995).

Assays:
[1] = test system: Staphylococcus aureus; test: Antimicrobial activity against Staphylococcus aureus at 50 ug/disk after 24 to 72 hrs; type: functional; conditions: read-out: IZ
[2] = test system: Bacillus subtilis; test: Antimicrobial activity against Bacillus subtilis at 50 ug/disk after 24 to 72 hrs; type: functional; conditions: read-out: IZ

Structure (SMILES) | zone of inhibition at 50 µg/disc [1] | zone of inhibition at 50 µg/disc [2]
C[C@H](CO)CCC[C@@H](C)[C@H]1[C@@H](O)[C@H](O)[C@H]2[C@@H]3[C@H](O)[C@@H](O)[C@H]4C[C@@H](O)CC[C@]4(C)[C@H]3CC[C@]12C | 1 mm | 2 mm
CC(C)[C@@H](O)CC[C@@H](C)[C@H]1C[C@H](OS(=O)(=O)O)[C@H]2[C@@H]3C[C@@H](O)[C@@]4(O)C[C@@H](O)CC[C@]4(C)[C@H]3CC[C@@]21C | 1 mm | 3 mm
